Test results: EP0227431A1, “Heterocyclic amides” (BEECHAM GROUP PLC, priority 1985, dated 1987)

Key:
[1] = system: Phospholipase A2 (Naja naja venom, Sigma); assay: Inhibition of Phospholipase A2 Activity (Method A); format: biochemical; settings: inhibition of arachidonic acid release, tested in triplicate
Protocol: Inhibition of Phospholipase A2 Activity
Enzyme: Phospholipase A2 (Naja naja venom, Sigma)
Substrate: Diarachidoyl phosphatidylcholine (10.6mg) and α-1-palmitoyl-2-[1-^14C]-arachidonyl phosphatidylcholine (0.5uCi; 52.9mCi/mMol) in 28ml of TrisHCl buffer=100mM, pH 8.7) ultrasonicated.
Assay: Incubations containing PLA2 (0.125ng) in Tris HC1 buffer (lOOmM, pH 8.7) and CaCl2 (4mM) were prepared on ice. Immediately prior to incubation at 37°C 5µl of DMSO or compound in DMSO were added. The final assay volume was 1.75ml. After 10 minutes at 37 °C 750µl of substrate was added, with mixing, and the incubation continued for a further 15 min. The reaction was terminated by placing on ice and adding 5ml CHCl3:MeOH (2:lv/v).
The lower organic phase was removed and stored under N2 at-20 °C until analysed. Analysis was by 1-dimensional t.l.c. on polygram Sil G sheets in the solvent system petroleum ether: diethyl ether: acetic acid (60:40:1,v/v). In this system the phospholipid remains at the origin and the arachidonic acid has an approximate Rf. value of 0.36. The areas of interest were cut from the plates and radioactivity determined by liquid scintillation counting.
All compounds were tested in triplicate.
Calculation: The radioactivity of the arachidonic acid is expressed as a percentage of the total dpm cut from the plate. The percentage inhibition of arachidonic acid release compared to that of the control was calculated after correction for the level of spontaneous release where: • x = % corrected mean arachidonic acid release in control • y = % corrected arachidionic acid release after inhibition • % inhibition [formula]
The mean of the triplicate samples was calculated giving z + standard deviation%.

[2] = target: T1, 5-Lipoxygenase enzyme (10,000 g supernatant from RBL-1 cells) (Rattus norvegicus, UniProt P12527); assay: Inhibition of 5-Lipoxygenase Activity (Method B); format: biochemical; settings: decrease in formation of 5-HETE and 5,12-diHETE relative to control
T1 construct: 5-Lipoxygenase enzyme was prepared as a 10,000 g supernatant from RBL-1 cells; endogenous in cells; host or cells: RBL-1 cells (10,000 g supernatant, method of Jakschik)
T1 sequence (P12527 1-673): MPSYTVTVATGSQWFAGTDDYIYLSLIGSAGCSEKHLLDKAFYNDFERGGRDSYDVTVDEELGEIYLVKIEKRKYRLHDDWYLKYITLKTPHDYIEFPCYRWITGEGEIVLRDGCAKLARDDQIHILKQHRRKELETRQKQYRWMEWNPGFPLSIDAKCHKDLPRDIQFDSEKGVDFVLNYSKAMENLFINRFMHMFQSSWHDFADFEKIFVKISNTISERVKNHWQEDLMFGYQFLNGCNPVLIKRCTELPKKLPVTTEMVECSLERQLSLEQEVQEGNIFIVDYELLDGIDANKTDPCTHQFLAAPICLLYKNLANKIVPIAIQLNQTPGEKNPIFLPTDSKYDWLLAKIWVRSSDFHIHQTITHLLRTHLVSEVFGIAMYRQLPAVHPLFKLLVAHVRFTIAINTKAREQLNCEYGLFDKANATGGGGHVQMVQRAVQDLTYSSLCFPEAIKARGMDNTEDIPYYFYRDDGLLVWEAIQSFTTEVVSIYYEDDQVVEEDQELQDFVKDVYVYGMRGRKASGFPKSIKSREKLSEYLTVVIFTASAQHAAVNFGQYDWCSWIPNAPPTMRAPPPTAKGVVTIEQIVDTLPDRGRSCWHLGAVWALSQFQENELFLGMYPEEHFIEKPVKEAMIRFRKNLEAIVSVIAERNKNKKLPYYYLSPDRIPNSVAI
Protocol: Inhibition of 5-Lipoxygenase Activity
5-Lipoxygenase enzyme was prepared as a 10,000 g supernatant from RBL-1 cells by the method of Jakschik [Jakschik, B.A., F.F. Sun, L.M. Lee, and M.M.Steinhoff, 1980, Biochem. Biophys. Res. Comm. 95, 103]. The 10,000 g supernatant was diluted with homogenization buffer to the equivalent of 1.5 - 2.5 x 10^7 cells. ml-^1 and made 2mM with respect to CaCl2. Aliquots of 0.5 ml were then dispensed into tubes, and incubated at 29 °C with 5 µl ethanol or compound in ethanol at the desired concentration for 2 min. Then [1-^14C] arachidonic acid was added in buffer to give a final concentration of 6.3 uM and 0.2 µCi per incubation, and the reaction continued at 29 °C for 2 min. The reaction was terminated by adding 1 ml of acetone and cooling on ice, 0.5 ml of ice-cold saline and 10 µl of 2N formic acid were added, and the mixture was extracted with 2 x 2 ml of chloroform. The extract was stored under N2at -20°C until analysis by chromatography. Activity was measured as the percentage of total radioactivity found in 5-HETE and 5,12-diHETE, and inhibition calculated as the decrease in formation of the sum of these two species in compound-treated incubates relative to control incubates.

| SMILES | Phospholipase A2 Inhibition at 20µM (%) [1] | inhibition at 20 µM [2] |
| --- | --- | --- |
| CCOC(=O)c1c(NC(=O)C=Cc2ccc(O)c(O)c2)sc2c1CCCC2 [Example 11, Ethyl-2[N-3,4-dihydroxycinnamoyl)amino]4,5,6,7-tetrahydrobenzo [bj thiophene-3-carboxylate] | 92% | 91% |
| COC(=O)c1sccc1NC(=O)C=Cc1ccc(OC)c(OC)c1 [Example 6, Methyl-3[N-(3,4-dimethoxycinnamoyl)amino]thiophene-2-carboxylate] | 31% | 81% |
| COC(=O)c1sccc1NC(=O)C=Cc1ccc(O)c(O)c1 [Example 7] | 84% | 93% |
| COC(=O)c1sccc1NC(=O)C=Cc1ccc(O)c(OC)c1 [Example 8] | 26% | 98% |
| COc1cc(C=CC(=O)Nc2ccsc2C(=O)O)ccc1O [Example 13, 3-[N-(4-hydroxy-3-methoxycinnamoyl)-amino]thiophene-2-carboxylic acid.] | 26% | 64% |
| O=C(C=Cc1ccc(O)c(O)c1)Nc1ncccc1C(=O)O [Example 14, 2-[N-(3,4-dihydroxycinnamoyl)amino]pyridine 3-carboxylic acid] | – | 67% |
| COC(=O)c1sc(-c2ccc(Cl)cc2)cc1NC(=O)C=Cc1ccc(OC(C)=O)c(OC(C)=O)c1 [Example 16, Methyl-5-(4-chlorophenyl)-3-(3,4-diacetoxycinnamoyl-amino)-thiophene-2-carboxylate] | – | 60% |
| O=C(C=Cc1ccc(O)c(O)c1)Nc1ccsc1C(=O)O [Example 12] | 36% | 88% |
| COc1ccc(C=CC(=O)Nc2ccsc2C(=O)O)cc1OC [Example 15, 3-[N-(3,4-Dimethoxycinnamoyl)amino]thiophene-2-carboxylic acid] | 10% | 0% |
| CCOC(=O)c1c[nH]nc1NC(=O)C=Cc1ccc(O)c(O)c1 [Example 9, Ethyl 3-[N-(3,4-dihydroxycinnamol)amino]pyrazole-4-carboxylate] | 71% | 97% |
| CCOC(=O)c1cccnc1NC(=O)C=Cc1ccc(O)c(O)c1 [Example 10, Ethyl-2 [N-(3,4-dihydroxycinnamoyl)amino]pyridine-3-carboxylate] | 10% | 95% |
